SMILES strings stand for the structures.

The target in this assay is T1, human SLC6A19 and TMEM27 (Homo sapiens, UniProt Q695T7).
T1 construct: expressed in transfected cells
T1 sequence (Q695T7 1-634): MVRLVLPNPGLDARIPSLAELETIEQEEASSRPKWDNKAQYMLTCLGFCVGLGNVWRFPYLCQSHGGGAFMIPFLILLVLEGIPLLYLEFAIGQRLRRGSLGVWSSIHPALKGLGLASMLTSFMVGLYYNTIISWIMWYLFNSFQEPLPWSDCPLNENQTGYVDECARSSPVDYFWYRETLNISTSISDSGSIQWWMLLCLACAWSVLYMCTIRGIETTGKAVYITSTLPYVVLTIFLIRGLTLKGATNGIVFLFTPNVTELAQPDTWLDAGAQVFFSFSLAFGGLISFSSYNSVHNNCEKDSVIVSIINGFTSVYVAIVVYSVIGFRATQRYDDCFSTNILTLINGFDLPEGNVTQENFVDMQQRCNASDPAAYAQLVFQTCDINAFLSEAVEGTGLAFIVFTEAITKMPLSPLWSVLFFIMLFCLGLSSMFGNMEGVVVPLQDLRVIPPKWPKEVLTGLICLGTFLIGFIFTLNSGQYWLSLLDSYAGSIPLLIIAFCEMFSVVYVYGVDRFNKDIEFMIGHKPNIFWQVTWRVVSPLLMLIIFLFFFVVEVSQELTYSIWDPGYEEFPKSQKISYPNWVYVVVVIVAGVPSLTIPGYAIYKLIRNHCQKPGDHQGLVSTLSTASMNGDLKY
T1 sequence (Q9HBJ8 15-222 partner): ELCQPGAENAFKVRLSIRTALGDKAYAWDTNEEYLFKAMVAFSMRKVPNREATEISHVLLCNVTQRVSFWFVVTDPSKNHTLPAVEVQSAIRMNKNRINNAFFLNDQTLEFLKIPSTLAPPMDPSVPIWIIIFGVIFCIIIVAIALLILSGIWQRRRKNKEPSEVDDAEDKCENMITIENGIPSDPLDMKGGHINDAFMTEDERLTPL
The assay is described as follows: Radiolabelled (3H) leucine uptake in CHO cells with doxycycline-inducible expression of human SLC6A19 and TMEM27 (Example B-1). In kind it is cell-based. The settings on record: CHO cells with doxycycline-inducible expression of human SLC6A19 and TMEM27, read-out: SLC6A19_Radioligand Uptake Assay IC50. On the procedure:
The flasks were then incubated (humidified, 37° C. with 5% CO2) for 2 minutes. After incubation, 10 mL of pre-warmed cell culture media was added to each flask. The cell suspension was collected and centrifuged for 5 minutes at 200×g. The supernatant was aspirated and the pellet was resuspended in 5 mL pre-warmed cell culture media. The resuspended cells were counted using the Countess Cell Counting Chamber (Invitrogen) and the cell concentration of the suspension was readjusted to 1 million live cells/mL using pre-warmed cell culture media. […] Assay plates were then incubated (humidified, 37° C. with 5% CO2) for 18 hours. After incubation, the media was aspirated and the wells were washed 4 times with pre-warmed HBSS (Sigma-Aldrich, H8264-1L) using an Apricot S-Pipette S2 (Apricot Designs), such that 5 uL/well HBSS was remaining at the end of each wash. […] At this step, the final in-well DMSO concentration in the assay plate is 0.5%. All compounds were plated in a duplicate 8-point dilution series that consisted of 3-fold dilutions. The plates were incubated with compound (humidified, 37° C. with 5% CO2) for 1 hour. […] The plates were then incubated (humidified, 37° C. with 5% CO2) on a plate shaker at 200 rpm for 2 hours. After incubation, the plates were removed from the shaker and kept at room temperature for 15 minutes. Liquid scintillation analysis was performed using the MicroBeta2 Microplate Counter (Perkin Elmer). Activity (%) was derived by normalizing the average of positive control compound treated wells to 0% and the average of DMSO (negative control) wells to 100%. Collaborative Drug Discovery software was used for graphing data.
As to `CNC(=O)NCc1cc2cc(Cl)c(OCc3cc(C)on3)cc2[nH]1` [Compound 213, 1-((5-chloro-6-((5-methylisoxazol-3-yl)methoxy)-1H-indol-2-yl)methyl)-3-methylurea], the IC50 came to 192 nM.
With `Cc1cc(COc2cc3[nH]c(CNC(=O)N4CC(F)C4)cc3cc2Cl)on1` [Compound 372, N-((5-chloro-6-((3-methylisoxazol-5-yl)methoxy)-1H-indol-2-yl)methyl)-3-fluoroazetidine-1-carboxamide] the figure was 253 nM; with `COC(=O)NCc1cc2cc(F)c(OCc3cc(C)no3)cc2[nH]1` [Compound 621, methyl ((5-fluoro-6-((3-methylisoxazol-5-yl)methoxy)-1H-indol-2-yl)methyl)carbamate], 1770 nM.
For the compound `Cc1cc(COc2cc3[nH]c(CNC(=O)N4CCC45COC5)cc3cc2Cl)on1` [Compound 378, N-((5-chloro-6-((3-methylisoxazol-5-yl)methoxy)-1H-indol-2-yl)methyl)-6-oxa-1-azaspiro[3.3]heptane-1-carboxamide], the IC50 turned out to be 5510 nM.
Regarding `COCCOc1cc2[nH]c(CNC(=O)C3(C)CC3)cc2cc1Cl` [Compound 333, N-((5-chloro-6-(2-methoxyethoxy)-1H-indol-2-yl)methyl)-1-methylcyclopropane-1-carboxamide], the IC50 was 206 nM.
With `CC1(C(=O)NCc2cc3cc(Cl)c(OCc4cscn4)cc3[nH]2)CCC1` [Compound 506, N-((5-chloro-6-(thiazol-4-ylmethoxy)-1H-indol-2-yl)methyl)-1-methylcyclobutane-1-carboxamide] the figure was 331 nM; with `CCNC(=O)NCc1cc2cc(Cl)c(OCc3cc(C)no3)cc2[nH]1` [Compound 369, 1-((5-chloro-6-((3-methylisoxazol-5-yl)methoxy)-1H-indol-2-yl)methyl)-3-ethylurea], 125 nM; with `CC1(C(=O)NCc2cc3cc(Cl)c(OCCOC4CC4)cc3[nH]2)CC1` [Compound 335, N-((5-chloro-6-(2-cyclopropoxyethoxy)-1H-indol-2-yl)methyl)-1-methylcyclopropane-1-carboxamide], 126 nM.
The same measure for `C[C@H](O)C(=O)NCc1cc2cc(F)c(OCc3cscn3)cc2[nH]1` [Compound 281, (S)-N-((5-fluoro-6-(thiazol-4-ylmethoxy)-1H-indol-2-yl)methyl)-2-hydroxypropanamide]: 2280 nM.
With `CC1(C(=O)NCc2cc3cc(OC(F)(F)F)c(OCc4ccon4)cc3[nH]2)CC1` [Compound 508, N-((6-(isoxazol-3-ylmethoxy)-5-(trifluoromethoxy)-1H-indol-2-yl)methyl)-1-methylcyclopropane-1-carboxamide] the figure was 293 nM; with `Cc1cc(COc2cc3[nH]c(CNC(=O)NCC(F)F)cc3cc2Cl)on1` [Compound 374, 1-((5-chloro-6-((3-methylisoxazol-5-yl)methoxy)-1H-indol-2-yl)methyl)-3-(2,2-difluoroethyl)urea], 412 nM.
As for `CC1(C(=O)NCc2cc3cc(C4CC4(F)F)c(OCc4ccon4)cc3[nH]2)CC1` (racemic) [Compound 658, N-((5-(2,2-difluorocyclopropyl)-6-(isoxazol-3-ylmethoxy)-1H-indol-2-yl)methyl)-1-methylcyclopropane-1-carboxamide], the IC50 came out at 590 nM.
As for `O=C(NCc1cc2cc(C3CC3)c(OCc3cscn3)cc2[nH]1)N1CCC1` [Compound 651, N-((5-cyclopropyl-6-(thiazol-4-ylmethoxy)-1H-indol-2-yl)methyl)azetidine-1-carboxamide], the IC50 came out at 340 nM.
Take `COCC(=O)NCc1cc2cc(Cl)c(OCc3cscn3)cc2[nH]1` [Compound 270, N-((5-chloro-6-(thiazol-4-ylmethoxy)-1H-indol-2-yl)methyl)-2-methoxyacetamide]: the IC50 was 110 nM.
The same measure for `Cc1cc(COc2cc3[nH]c(CNC(=O)[C@@H]4CCC[C@@H]4O)cc3cc2Cl)on1` (racemic) [Compound 573, (1R,2S)-N-((5-chloro-6-((3-methylisoxazol-5-yl)methoxy)-1H-indol-2-yl)methyl)-2-hydroxycyclopentane-1-carboxamide and (1S,2R)-N-((5-chloro-6-((3-methylisoxazol-5-yl)methoxy)-1H-indol-2-yl)methyl)-2-hydroxycyclopentane-1-carboxamide]: 1390 nM; for `CC(=O)NCc1cc2cc(Cl)c(OCc3cc(C)on3)cc2[nH]1` [Compound 142, N-((5-chloro-6-((5-methylisoxazol-3-yl)methoxy)-1H-indol-2-yl)methyl)acetamide]: 69 nM.
Consider `O=C(NCc1cc2cc(F)c(OCc3ccon3)cc2[nH]1)C1CC1` [Compound 140, N-((5-fluoro-6-(isoxazol-3-ylmethoxy)-1H-indol-2-yl)methyl)cyclopropanecarboxamide], for which the IC50 came out at 148 nM.
With `Cc1coc(COc2cc3[nH]c(CNC(=O)C4(C)CC4)cc3cc2Cl)n1` [Compound 71, N-((5-chloro-6-((4-methyloxazol-2-yl)methoxy)-1H-indol-2-yl)methyl)-1-methylcyclopropane-1-carboxamide] the figure was 111 nM; with `N#CCC(=O)NCc1cc2cc(Cl)c(OCc3cscn3)cc2[nH]1` [Compound 437, N-((5-chloro-6-(thiazol-4-ylmethoxy)-1H-indol-2-yl)methyl)-2-cyanoacetamide], 382 nM; with `Cc1cc(COc2cc3[nH]c(CNC(=O)C4(C)CC4)cc3cc2F)no1` [Compound 329, N-((5-fluoro-6-((5-methylisoxazol-3-yl)methoxy)-1H-indol-2-yl)methyl)-1-methylcyclopropane-1-carboxamide], 167 nM.
`CO[C@H]1C[C@H](Oc2cc3[nH]c(CNC(C)=O)cc3cc2Cl)C1` [Compound 462, N-((5-chloro-6-((trans)-3-methoxycyclobutoxy)-1H-indol-2-yl)methyl)acetamide]: the IC50 was determined as 2000 nM.
For `Cc1cc(COc2cc3[nH]c(CNC(=O)C4COC4)cc3cc2Cl)on1` [Compound 274, N-((5-chloro-6-((3-methylisoxazol-5-yl)methoxy)-1H-indol-2-yl)methyl)oxetane-3-carboxamide], the IC50 was found to be 175 nM.
As to `Cc1cc(COc2cc3[nH]c(CNC(=O)C(C)(C)C#N)cc3cc2Cl)on1` [Compound 485, N-((5-chloro-6-((3-methylisoxazol-5-yl)methoxy)-1H-indol-2-yl)methyl)-2-cyano-2-methylpropanamide], the IC50 worked out at 578 nM.
For the compound `CC1(C(=O)NCc2cc3cc(Cl)c(OCc4cccc(O)c4)cc3[nH]2)CC1` [Compound 198, N-((5-chloro-6-((3-hydroxybenzyl)oxy)-1H-indol-2-yl)methyl)-1-methylcyclopropane-1-carboxamide], the IC50 amounted to 2050 nM.
With `O=C(NCc1cc2cc(F)c(OCc3ccccn3)cc2[nH]1)C1CC1` [Compound 505, N-((5-fluoro-6-(pyridin-2-ylmethoxy)-1H-indol-2-yl)methyl)cyclopropanecarboxamide] the figure was 203 nM; with `O=C(NCc1cc2cc(C3CC3)c(OCc3cscn3)cc2[nH]1)N1CCCC1` [Compound 652, N-((5-cyclopropyl-6-(thiazol-4-ylmethoxy)-1H-indol-2-yl)methyl)pyrrolidine-1-carboxamide], 365 nM; with `Cc1cc(COc2cc3[nH]c(CNC(=O)CC4CC4)cc3cc2Cl)on1` [Compound 449, N-((5-chloro-6-((3-methylisoxazol-5-yl)methoxy)-1H-indol-2-yl)methyl)-2-cyclopropylacetamide], 187 nM.
Take `C[C@@H]1CCN(C(=O)NCc2cc3cc(F)c(OCc4cscn4)cc3[nH]2)C1` [Compound 387, (R)-N-((5-fluoro-6-(thiazol-4-ylmethoxy)-1H-indol-2-yl)methyl)-3-methylpyrrolidine-1-carboxamide]: the IC50 turned out to be 209 nM.

The values are drawn from patent US20240199546A1, “INHIBITORS OF SOLUTE CARRIER FAMILY 6A MEMBER 19 (SLC6A19) AND METHODS OF USE THEREOF” (Maze Therapeutics, Inc., priority 2022, published 2024).
